Assay results as given in paper PMC12156041, “Design, Synthesis and Antiplasmodial Activities of a Library of Fluorine-Based 3-Benzylmenadiones” (Molecules, 2025).
Values after ≈ are worked out from the molar mass of the structure shown. Values joined by “and” are separate entries in the source; they are usually repeats but may differ in a detail not shown here. Equal entries are not always repeated. Where two headings read alike, the source gives them in different places.

Legend:
[1] = system: P. falciparum NF54 strain; assay: P. falciparum NF54 [3H]hypoxanthine incorporation assay, 72 h, 0.5% Albumax; assay type: cell-based
[2] = system: P. falciparum NF54 strain; assay: Serum shift assay, P. falciparum NF54 72 h in 50% human serum; conditions: for IC50: read-out: IC50 NF54 72 h, 50% Human Serum; for Serum Shift: 50% human serum versus 0.5% Albumax
[3] = system: P. berghei (GFP ANKA malaria strain); assay: In vitro efficacy testing with P. berghei, 24 h (species shift assay); assay type: cell-based
[4] = system: P. falciparum NF54 strain; assay: P. falciparum NF54 24 h assay (species shift assay); assay type: cell-based
[5] = Thermodynamic aqueous solubility (shake-flask, PBS-10% DMSO); assay type: physicochemical; conditions: PBS with 10% DMSO, aqueous with cosolvent or surfactant or cyclodextrin, PBS pH 7.4, 10% DMSO, 20 °C, read-out: Thermodynamic aq. Solubility in PBS-10% DMSO
Procedure: Thermodynamic Aqueous Solubility: The shake-flask method enabled us to determine the apparent thermodynamic solubilities of the DMSO stock solutions of the compounds. […] The mixture was equilibrated at 20 °C for 24 h. After centrifugation, the supernatant was injected into an HPLC column coupled to an LC-MS apparatus (with UV–Vis detection) in order to determine the compound concentration. […] These solutions were also injected in order to calibrate the concentration determination process. […] Measurements were performed in duplicate.

[6] = system: P. berghei GFP ANKA malaria strain; assay: Drug assay in vivo in P. berghei-infected mice; conditions: p.o. 4 × 50 mg/kg; for Parasitized RBC over 100: individual mice; for Parasitized RBC over 100 / Parasitized RBC over 100, Avg. / % of Control / Activity (%): day 4; for % of Control: parasitemia; for Activity (%): reduction of parasitemia versus control
[7] = system: P. falciparum NF54 strain; conditions: cited from earlier work
[8] = Chromatographic Hydrophobicity Index (CHI) by HPLC; assay type: physicochemical; conditions: for CHI: Chromatographic Hydrophobicity Index, lipophilicity index; for chromatographic logD: pH 7.4, read-out: log D7.4
Procedure: Determination of CHI values: Compound lipophilicity influences permeability and propensity to nonspecific binding to plasma proteins. Although precise, the classical “shake flask” method is not always appropriate for the determination of high hydrophobicity, which can be alternatively measured using the Chromatographic Hydrophobicity Index method. This HPLC-based technique leads to rapid and cheap estimates of partition coefficients. […] A measure of 5 μL was injected onto the HPLC (with UV–Vis detection). […] The measurements were performed in duplicate. […] The CHI is approximately equal to the proportion of acetonitrile in the mobile phase when the compound is eluted from the column.

[9] = system: rat myoblast cell line (L6 cells); conditions: cited from earlier work
[10] = system: P. falciparum strain Dd2; parameters: method as in doi:10.1002/ejoc.201600144; conditions: multi-resistant P. falciparum strain Dd2 ref 12; cited from earlier work
[11] = Plasmodium falciparum, NF54, 72 h
[12] = Plasmodium falciparum, NF54, 72 h, read-out: IC50 NF54 72 h, 0.5% Albumax, Table 5B, 0.5% Albumax
[13] = Plasmodium falciparum, NF54, 72 h, read-out: IC50 Pf NF54, 72 h, Table 5A, species shift experiment
[14] = Plasmodium falciparum, NF54, as stated in text, read-out: IC50 against P. falciparum NF54
[15] = Plasmodium berghei, read-out: IC50 Pb, P. berghei, 24 h assay
[16] = Plasmodium falciparum, NF54, read-out: IC50 Pf NF54, 24 h assay

SMILES	IC50 [2, 11] [nM]	solubility thermodynamic at 24 h [5] [µM]	Parasitized RBC over 100 ([6]; 50 mg/kg)	Avg. Mouse Survival [6] [days]	Parasitized RBC over 100, Avg. [6]	% of Control [6] [%]	IC50 [1, 12] [nM]	IC50 [1, 13] [nM]	IC50 [1, 14] [nM]	Serum Shift [2]	IC50 [3, 15] [nM]	IC50 [4, 16] [nM]	CHI [8]	chromatographic logD [8]	IC50 ([7]; grey line ref 9) [nM]	Tox/L6 ([9]; grey line ref 9) [µM]	also measured
CC1=C(Cc2ccc(OC(F)(F)F)cc2)C(=O)c2ccccc2C1=O [A-b-3]	473																IC50 [1, 11]: 83 nM; IC50 ([1]; Plasmodium falciparum, NF54, 72 h, read-out: IC50 NF54 72 h, 0.5% Albumax): 83 nM; IC50 ([1]; Plasmodium falciparum, NF54, 72 h, read-out: IC50 Pf NF54, 72 h): 83 nM; IC50 ([1]; Plasmodium falciparum, NF54, read-out: IC50 against P. falciparum NF54): < 100 nM; IC50 ([3]; Plasmodium berghei, 24 h, read-out: IC50 Pb, 24 h): 191 nM; IC50 ([4]; Plasmodium falciparum, NF54, 24 h, read-out: IC50 Pf NF54, 24 h): 223 nM
CC1=C(Cc2ccc(F)c(C(F)(F)F)c2)C(=O)c2ccccc2C1=O [A-b-9, 4′-fluoro-3′-trifluoromethyl-benzylmenadione]	355	0.67 ± 0.01 (≈ 0.233 µg/mL)	70.3 and 49.1 and 52.4	4.0	57.27	97.23	59	62	< 100	6.1	149	143					Activity (%) [6]: 2.77%; IC50 ([1]; Plasmodium falciparum, NF54, 72 h, P. falciparum NF54, 72 h, read-out: IC50): 77 nM
CC1=C(Cc2ccc(C#N)cc2)C(=O)c2ccccc2C1=O [A-b-10]		0.82 ± 0.01 (≈ 0.236 µg/mL)							> 200				97	3.75			IC50 ([7]; grey line ref 8): 374 nM; Tox/L6 ([9]; grey line ref 8): 112.5 µM
COc1ccc(CC2=C(C)C(=O)c3ccccc3C2=O)cc1 [A-b-16]		1.07 ± 0.02 (≈ 0.313 µg/mL)											106	4.22			
COc1ccc(OC)c(CC2=C(C)C(=O)c3ccccc3C2=O)c1 [A-b-26]		0.59 ± 0.01 (≈ 0.19 µg/mL)											107	4.26	67	158.5	
CC1=C(Cc2c(F)c(F)c(F)c(F)c2F)C(=O)c2ccccc2C1=O [A-b-47]	324	0.33 ± 0.01 (≈ 0.116 µg/mL)	65.4 and 62.4 and 72.5	4.0	66.77	113.36	81	91	< 100	4.0	265	184	115	4.67	60	161.0	Activity (%) [6]: −13.36%
C[C@H]1[C@H](OC(=O)CCC(=O)O)O[C@@H]2O[C@@]3(C)CC[C@H]4[C@H](C)CC[C@@H]1[C@@]24OO3 [AS, artesunate, reference compound]	1							4.8			13						
COc1cc(CC2=C(C)C(=O)c3ccccc3C2=O)cc(OC)c1 [B-b-35]		0.75 ± 0.14 (≈ 0.242 µg/mL)							< 100				107	4.27	52	70.3	
CCN(CC)CCCC(C)Nc1ccnc2cc(Cl)ccc12 (stereo not drawn) [CQ, reference compound]																	IC50 ([1]; read-out: IC50 NF54 72 h, 0.5% Albumax, Table 5B, 0.5% Albumax): 5 nM; IC50 ([1]; read-out: IC50 Pf NF54, 72 h, Table 5A, species shift experiment): 11 nM; IC50 [2]: 6.6 nM; IC50 ([3]; read-out: IC50 Pb, 24 h, P. berghei, 24 h assay): 16 nM; IC50 ([4]; read-out: IC50 Pf NF54, 24 h, 24 h assay): 4.9 nM
CC1=C(Cc2ccc(C(F)(F)F)cc2)C(=O)c2cc(F)ccc2C1=O [Cpnd 6-F-PD]	80	0.06 ± 0.01 (≈ 0.0209 µg/mL)	28.2 and 35.8 and 27.8	7.0	30.60	51.95	93	120		0.9	170	104	117	4.75	181	44.7	Activity (%) ([6]; 50 mg/kg): 48.05%; Activity (%) ([6]; listed as 6-fluoro–plasmodione, 50 mg/kg): 50%; IC50 [10]: 59 ± 11 nM
CC1=C(Cc2ccc(C(F)(F)F)cc2)C(=O)c2ccc(F)cc2C1=O [Cpnd 7-F-PD]	377	0.59 ± 0.01 (≈ 0.205 µg/mL)	64.7 and 69.0 and 62.2	4.0	65.30	110.87	89	93		4.2	138	157					Activity (%) [6]: −10.87%
